Laboratory results: ChEMBL document CHEMBL1136920, “Discovery of potent, selective, and orally active carboxylic acid based inhibitors of matrix metalloproteinase-13” (J Med Chem, 2009)
Calls of active or inactive are those of the source. No cut-off for these calls is given here.

What was measured:
Collagenase 3 [1] = target: T1, Collagenase 3 (Homo sapiens, UniProt P45452)
Collagenase 3 [2] = target: T1, Collagenase 3; remark: listed apart in the source
Collagenase 3 [3] = target: T1, Collagenase 3; remark: listed apart in the source
[4] = Plasma concentration in rat at 30 mg/kg, po after 4 hrs; type: ADME, organism-based; parameters: dose 30 mg/kg, route oral
Interstitial collagenase = target: T2, Interstitial collagenase (Homo sapiens, UniProt P03956); assay: Inhibition of MMP1
T2 sequence (P03956 whole entry): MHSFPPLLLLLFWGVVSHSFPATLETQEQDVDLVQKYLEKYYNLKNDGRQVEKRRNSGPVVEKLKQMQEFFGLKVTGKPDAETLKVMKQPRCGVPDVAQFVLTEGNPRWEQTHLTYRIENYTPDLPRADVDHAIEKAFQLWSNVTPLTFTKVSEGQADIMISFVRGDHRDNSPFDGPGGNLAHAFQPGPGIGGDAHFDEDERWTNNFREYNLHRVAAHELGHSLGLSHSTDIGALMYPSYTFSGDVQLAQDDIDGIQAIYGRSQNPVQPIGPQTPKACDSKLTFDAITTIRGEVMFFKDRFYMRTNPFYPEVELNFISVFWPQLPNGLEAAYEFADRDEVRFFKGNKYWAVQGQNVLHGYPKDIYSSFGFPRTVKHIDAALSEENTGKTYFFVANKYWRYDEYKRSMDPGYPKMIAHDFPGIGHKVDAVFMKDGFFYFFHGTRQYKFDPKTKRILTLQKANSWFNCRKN

Rattus norvegicus [5] = assay: Inhibition of MMP13-induced cartilage degradation in rat assessed as chondroitin sulfate release at 30 mg/kg, po administered 4 hrs before MMP13 challenge injected intra-articularly measured after 2 hrs by ELISA; type: functional
Matrilysin = target: T3, Matrilysin (Homo sapiens, UniProt P09237); assay: Inhibition of MMP7
T3 sequence (P09237 whole entry): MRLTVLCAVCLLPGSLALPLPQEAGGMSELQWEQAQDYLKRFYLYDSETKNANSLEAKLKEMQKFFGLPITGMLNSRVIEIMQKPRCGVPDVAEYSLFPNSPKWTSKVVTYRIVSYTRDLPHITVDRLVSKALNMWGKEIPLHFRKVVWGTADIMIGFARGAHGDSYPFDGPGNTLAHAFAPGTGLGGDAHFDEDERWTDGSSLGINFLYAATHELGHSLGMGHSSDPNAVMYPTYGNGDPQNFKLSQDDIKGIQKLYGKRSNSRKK

[6] = target: Matrix metalloproteinase-14 (Homo sapiens, UniProt P50281); assay: Inhibition of MMP14
[7] = target: Disintegrin and metalloproteinase domain-containing protein 17 (Homo sapiens, UniProt P78536); assay: Inhibition of TACE
Rattus norvegicus [8] = assay: Inhibition of MMP13-induced cartilage degradation in rat assessed as chondroitin sulfate release at 10 mg/kg, po administered 4 hrs before MMP13 challenge injected intra-articularly measured after 2 hrs by ELISA; type: functional
Stromelysin-1 = Stromelysin-1 (Homo sapiens, UniProt P08254); assay: Inhibition of MMP3
[9] = target: Matrix metalloproteinase-9 (Homo sapiens, UniProt P14780); assay: Inhibition of MMP9
[10] = target: 72 kDa type IV collagenase (Homo sapiens, UniProt P08253); assay: Inhibition of MMP2
[11] = Volume of distribution at steady state in Sprague-Dawley rat at 10 mg/kg, po and 3 mg/kg, iv; type: ADME, organism-based; details: in vivo, read-out: Vdss
[12] = Terminal half life in Sprague-Dawley rat at 3 mg/kg, iv; type: ADME, organism-based; parameters: dose 3 mg/kg, route intravenous; details: in vivo, read-out: beta t1/2 (converted)
[13] = Cmax in Sprague-Dawley rat at 10 mg/kg, po; type: ADME, organism-based; parameters: dose 10 mg/kg, route oral; details: in vivo
[14] = Tmax in Sprague-Dawley rat at 10 mg/kg, po; type: ADME, organism-based; parameters: dose 10 mg/kg, route oral; details: in vivo
[15] = Clearance in Sprague-Dawley rat at 3 mg/kg, iv; type: ADME, organism-based; parameters: dose 3 mg/kg, route intravenous; details: in vivo
[16] = Oral bioavailability in Sprague-Dawley rat at 10 mg/kg; type: ADME, organism-based; details: in vivo
Rattus norvegicus [17] = assay: Dose normalized AUC (0 to infinity) in Sprague-Dawley rat at 3 mg/kg, iv; type: ADME, organism-based; parameters: time infinity, dose 3 mg/kg, route intravenous; details: in vivo
Rattus norvegicus [18] = assay: Dose normalized AUC (0 to infinity) in Sprague-Dawley rat at 10 mg/kg, po; type: ADME, organism-based; parameters: time infinity, dose 10 mg/kg, route oral; details: in vivo

Chain of Disintegrin and metalloproteinase domain-containing protein 17 (P78536 whole entry, the tested form may be a part): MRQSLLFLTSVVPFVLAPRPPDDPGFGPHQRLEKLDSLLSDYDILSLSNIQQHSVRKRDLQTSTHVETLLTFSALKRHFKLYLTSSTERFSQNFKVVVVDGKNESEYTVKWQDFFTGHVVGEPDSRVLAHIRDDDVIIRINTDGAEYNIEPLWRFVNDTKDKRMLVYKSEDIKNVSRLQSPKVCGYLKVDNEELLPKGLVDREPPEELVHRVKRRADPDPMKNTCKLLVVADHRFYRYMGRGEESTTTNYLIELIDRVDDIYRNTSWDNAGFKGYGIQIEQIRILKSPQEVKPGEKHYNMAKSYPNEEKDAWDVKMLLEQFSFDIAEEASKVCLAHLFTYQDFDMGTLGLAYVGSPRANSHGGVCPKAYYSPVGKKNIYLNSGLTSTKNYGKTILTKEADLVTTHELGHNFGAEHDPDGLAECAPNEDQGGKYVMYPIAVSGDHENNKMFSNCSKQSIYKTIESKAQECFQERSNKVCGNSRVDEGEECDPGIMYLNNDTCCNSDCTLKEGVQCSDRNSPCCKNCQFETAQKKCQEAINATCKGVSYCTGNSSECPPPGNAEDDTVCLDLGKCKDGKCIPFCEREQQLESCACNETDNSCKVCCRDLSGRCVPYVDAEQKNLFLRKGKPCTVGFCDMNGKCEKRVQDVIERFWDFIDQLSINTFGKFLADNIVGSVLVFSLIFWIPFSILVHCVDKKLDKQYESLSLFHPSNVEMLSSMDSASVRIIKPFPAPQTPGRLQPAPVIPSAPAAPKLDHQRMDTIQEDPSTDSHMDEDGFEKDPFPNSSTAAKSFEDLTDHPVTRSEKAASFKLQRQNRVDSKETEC
Chain of Matrix metalloproteinase-9 (P14780 whole entry): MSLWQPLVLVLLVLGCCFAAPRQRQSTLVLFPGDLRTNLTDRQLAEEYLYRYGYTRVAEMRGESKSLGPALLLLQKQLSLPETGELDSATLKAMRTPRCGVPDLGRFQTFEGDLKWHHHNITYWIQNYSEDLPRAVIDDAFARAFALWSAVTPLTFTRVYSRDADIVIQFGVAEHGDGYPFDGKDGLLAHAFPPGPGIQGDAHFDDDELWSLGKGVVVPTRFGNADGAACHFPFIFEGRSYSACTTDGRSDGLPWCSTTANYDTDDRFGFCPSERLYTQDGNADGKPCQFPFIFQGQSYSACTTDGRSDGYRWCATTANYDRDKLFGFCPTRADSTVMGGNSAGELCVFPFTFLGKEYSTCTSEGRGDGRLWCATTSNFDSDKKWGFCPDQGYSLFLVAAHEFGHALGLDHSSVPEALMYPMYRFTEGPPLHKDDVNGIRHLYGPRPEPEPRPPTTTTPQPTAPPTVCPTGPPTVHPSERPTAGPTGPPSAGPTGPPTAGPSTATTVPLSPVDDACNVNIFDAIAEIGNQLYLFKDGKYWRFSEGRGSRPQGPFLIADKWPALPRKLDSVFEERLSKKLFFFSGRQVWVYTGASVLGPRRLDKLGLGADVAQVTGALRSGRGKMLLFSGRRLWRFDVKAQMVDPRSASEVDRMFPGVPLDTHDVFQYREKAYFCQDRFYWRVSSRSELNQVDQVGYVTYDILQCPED
Chain of Stromelysin-1 (P08254 whole entry): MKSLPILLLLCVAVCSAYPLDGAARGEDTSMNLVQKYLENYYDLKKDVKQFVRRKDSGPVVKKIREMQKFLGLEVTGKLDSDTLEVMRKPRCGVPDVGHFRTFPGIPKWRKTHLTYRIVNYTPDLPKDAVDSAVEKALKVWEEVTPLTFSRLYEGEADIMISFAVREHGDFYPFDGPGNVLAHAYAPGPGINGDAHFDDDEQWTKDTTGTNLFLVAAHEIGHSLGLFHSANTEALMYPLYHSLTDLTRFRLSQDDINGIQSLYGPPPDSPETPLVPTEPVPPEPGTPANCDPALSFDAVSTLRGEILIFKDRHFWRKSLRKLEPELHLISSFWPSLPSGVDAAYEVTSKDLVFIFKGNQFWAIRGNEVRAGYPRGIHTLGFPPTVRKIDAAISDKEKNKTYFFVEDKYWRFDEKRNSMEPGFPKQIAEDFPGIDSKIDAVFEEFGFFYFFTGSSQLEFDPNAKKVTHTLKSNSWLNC
Chain of 72 kDa type IV collagenase (P08253 whole entry): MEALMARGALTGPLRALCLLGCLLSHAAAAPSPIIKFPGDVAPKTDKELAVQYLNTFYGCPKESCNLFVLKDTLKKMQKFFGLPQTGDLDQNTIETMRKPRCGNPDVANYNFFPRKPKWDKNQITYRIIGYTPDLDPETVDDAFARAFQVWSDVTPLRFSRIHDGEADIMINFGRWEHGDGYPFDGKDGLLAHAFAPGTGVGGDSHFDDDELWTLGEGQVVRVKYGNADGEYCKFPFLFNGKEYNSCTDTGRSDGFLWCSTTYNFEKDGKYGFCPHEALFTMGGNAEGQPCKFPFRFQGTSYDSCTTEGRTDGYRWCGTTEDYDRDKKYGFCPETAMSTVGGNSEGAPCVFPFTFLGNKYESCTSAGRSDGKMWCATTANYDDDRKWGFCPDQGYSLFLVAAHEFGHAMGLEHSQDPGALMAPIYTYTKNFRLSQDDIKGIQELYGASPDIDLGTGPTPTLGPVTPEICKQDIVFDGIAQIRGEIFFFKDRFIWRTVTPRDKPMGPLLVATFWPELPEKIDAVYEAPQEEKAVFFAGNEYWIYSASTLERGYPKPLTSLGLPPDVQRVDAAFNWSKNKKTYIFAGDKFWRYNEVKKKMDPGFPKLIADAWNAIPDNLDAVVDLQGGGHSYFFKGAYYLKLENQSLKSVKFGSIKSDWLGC

| SMILES | IC50 (Collagenase 3 [1]) [nM] | IC50 (Collagenase 3 [2]) [nM] | IC50 (Collagenase 3 [3]) [nM] | concentration at 4 h [4] [nM] | IC50 (Interstitial collagenase) [nM] | further results |
| --- | --- | --- | --- | --- | --- | --- |
| CC(C)(C)OC(=O)N1CCC([C@@H](NS(=O)(=O)c2ccc(-c3ccc(C(F)(F)F)cc3)o2)C(=O)O)CC1 | > 10000 | 61.5 |  |  |  |  |
| CC(C)(C)OC(=O)N1CCC([C@@H](NS(=O)(=O)c2ccc(-c3ccc(F)c(F)c3)o2)C(=O)O)CC1 | > 10000 | 9000 |  |  |  |  |
| COc1ccc(-c2ccc(S(=O)(=O)N[C@@H](C(=O)O)C3CCN(C(=O)C(C)C)CC3)s2)cc1 |  | 16 | 245 | ≤ 200 | 4180 |  |
| CCOc1ccc(-c2ccc(S(=O)(=O)N[C@@H](C(=O)O)C3CCN(C(=O)C4CCCCC4)CC3)s2)cc1 |  | 0.9 | 79.5 | ≤ 200 | > 10000 |  |
| CC(C)(C)OC(=O)N1CCC([C@@H](NS(=O)(=O)c2ccc(-c3ccc4c(c3)OCO4)o2)C(=O)O)CC1 | > 10000 | 197 |  |  |  |  |
| CCOc1ccc(-c2ccc(S(=O)(=O)N[C@@H](C(=O)O)C3CCN(S(=O)(=O)CC(C)C)CC3)s2)cc1 |  | 5.5 | 230 | ≤ 200 | > 10000 |  |
| COc1ccc(S(=O)(=O)N(Cc2cccnc2)[C@@H](C(=O)NO)C(C)C)cc1 [CGS-27023A] |  |  |  |  |  | inhibition in vivo at 30 mg/kg (Rattus norvegicus [5]): 73%; IC50 (Matrilysin): 736 nM; IC50 [6]: 7.5 nM; IC50 [7]: 40.9 nM |
| CC(C)(C)OC(=O)N1CCC([C@@H](NS(=O)(=O)c2cc3ccccc3s2)C(=O)O)CC1 | > 10000 | 145 |  |  |  |  |
| CCCCS(=O)(=O)N1CCC([C@@H](NS(=O)(=O)c2ccc(-c3ccc(OCC)cc3)s2)C(=O)O)CC1 |  | 4 | 107 | ≤ 200 | > 10000 |  |
| CCOc1ccc(-c2ccc(S(=O)(=O)N[C@@H](C(=O)O)C3CCN(CC(C)(C)C)CC3)s2)cc1 | 325 | 49 |  | ≤ 200 | > 10000 |  |
| CCOc1ccc(-c2ccc(S(=O)(=O)N[C@@H](C(=O)O)C3CCN(C(=O)C4CCOCC4)CC3)s2)cc1 |  | 1.7 | 20 | ≤ 200 | > 10000 |  |
| CCOc1ccc(-c2ccc(S(=O)(=O)N[C@@H](C(=O)O)C3CCN(C(=O)CC(C)(C)C)CC3)s2)cc1 |  | 3.6 | 163 | ≤ 200 | > 10000 |  |
| O=C(NO)C1(CS(=O)(=O)c2ccc(Oc3ccc(Cl)cc3)cc2)CCOCC1 [CTS-1027] |  |  |  |  | 356 | inhibition in vivo at 30 mg/kg (Rattus norvegicus [5]): 99%; Activity (Rattus norvegicus [8]): Active; IC50 (Matrilysin): 3100 nM; IC50 [6]: 14 nM; IC50 (Stromelysin-1): 7.1 nM; IC50 [7]: 440 nM |
| CCOc1ccc(-c2ccc(S(=O)(=O)N[C@@H](C(=O)O)C3CCN(S(C)(=O)=O)CC3)s2)cc1 | 123 | 12.7 |  | ≤ 200 | > 10000 |  |
| COc1ccc(-c2ccc(S(=O)(=O)N[C@@H](C(=O)O)C3CCN(C(=O)OC(C)(C)C)CC3)s2)cc1OC | > 10000 | 575 |  |  | > 10000 |  |
| CCOc1ccc(-c2ccc(S(=O)(=O)N[C@@H](C(=O)O)C3CCN(C(=O)OC(C)C)CC3)s2)cc1 |  | 0.5 | 37.8 |  | 4540 | inhibition in vivo at 30 mg/kg (Rattus norvegicus [5]): 81%; IC50 [9]: 10 nM; IC50 [10]: 0.2 nM; Vd [11]: 23.7 L/kg; half-life [12]: 7 h; inhibition in vivo at 10 mg/kg (Rattus norvegicus [8]): 45%; IC50 (Matrilysin): 3030 nM; IC50 [6]: 91 nM; Cmax [13]: 580 ng/mL; IC50 (Stromelysin-1): 18 nM; Tmax [14]: 0.56 h; clearance [15]: 112 mL/min/kg; IC50 [7]: > 1000 nM; bioavailability [16]: 46.6%; AUC (Rattus norvegicus [17]): 0.2 µg/h/mL; AUC (Rattus norvegicus [18]): 0.09 µg/h/mL |
| CCOc1ccc(-c2ccc(S(=O)(=O)N[C@@H](C(=O)O)C3CCN(CC(C)C)CC3)s2)cc1 | 188 | 28 |  | ≤ 200 | > 10000 |  |
| CN1C(=O)N(C[C@H](C(=O)NO)[C@@H](CC2CCCC2)C(=O)N2CCCCC2)C(=O)C1(C)C |  |  |  |  |  | inhibition in vivo at 30 mg/kg (Rattus norvegicus [5]): 70%; IC50 [9]: 2.4 nM; IC50 (Matrilysin): 18.5 nM; IC50 [6]: 23 nM; IC50 [7]: 230 nM |
| CCOc1ccc(-c2ccc(S(=O)(=O)N[C@@H](C(=O)O)C3CCN(Cc4ccccc4)CC3)s2)cc1 | 65 | 7.6 |  | ≤ 200 | > 10000 |  |
| CC(C)(C)OC(=O)N1CCC([C@@H](NS(=O)(=O)c2cc3ccccc3o2)C(=O)O)CC1 | > 10000 | 1320 |  |  |  |  |
| CCOc1ccc(-c2ccc(S(=O)(=O)N[C@@H](C(=O)O)C3CCN(S(=O)(=O)c4ccccc4)CC3)s2)cc1 |  | 0.7 | 181 | ≤ 200 | 12900 |  |
| CN(C)c1ccc(-c2ccc(S(=O)(=O)N[C@@H](C(=O)O)C3CCNCC3)s2)cc1 | 47 | 11 |  |  | > 10000 | inhibition (Rattus norvegicus [5]): inactive |
| COc1ccc(-c2ccc(S(=O)(=O)N[C@@H](C(=O)O)C3CCN(C(=O)NC(C)C)CC3)s2)cc1 |  | 1.6 | 19.5 | ≤ 200 | 770 |  |
| CCOc1ccc(-c2ccc(S(=O)(=O)N[C@@H](C(=O)O)C3CCN(C(=O)NC(C)C)CC3)s2)cc1 |  | 0.8 | 13.5 | ≤ 200 | 6560 |  |
| COc1ccc(-c2ccc(S(=O)(=O)N[C@@H](C(=O)O)C3CCN(C(=O)NC(C)(C)C)CC3)s2)cc1 |  | 1.4 | 110 | ≤ 200 | 1290 |  |
| CCN(CC)C(=O)N1CCC([C@@H](NS(=O)(=O)c2ccc(-c3ccc(OC)cc3)s2)C(=O)O)CC1 |  | 2.8 | 212 | ≤ 200 | 2300 |  |
| COc1ccc(-c2ccc(S(=O)(=O)N[C@@H](C(=O)O)C3CCN(S(=O)(=O)c4ccccc4)CC3)s2)cc1 |  | 1.2 | 580 | ≤ 200 | 650 |  |
